PMC10122656, “Siglec-6 mediates the uptake of extracellular vesicles through a noncanonical glycolipid binding pocket” (Nature Communications, 2023)
“And” between values parts separate entries of the source, which are not always exact repeats. Identical values can stand only once. Values belong to the compound of their own block, whether it stands above or below them.

Experiments:
[1] = target: T1, CHO cells expressing Siglec-6 mutants (C46A, C172A, R to A mutants, F93A, L95A, G175M) (Homo sapiens, UniProt O43699, R112A); assay: Cell assay (liposome/EV binding, flow cytometry); type: cell-based; conditions: sheet Figure S26a, 3% GM3-DAG liposomes, R112A;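 note: AF647 fluorescence intensity from 0.1 mol% AF647–PEG45–DSPE in liposomes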
T1 construct: These new CHO cell lines are the full-length versions of the Siglecs; expressed in transfected cells
T1 sequence (O43699 27-453 R112A): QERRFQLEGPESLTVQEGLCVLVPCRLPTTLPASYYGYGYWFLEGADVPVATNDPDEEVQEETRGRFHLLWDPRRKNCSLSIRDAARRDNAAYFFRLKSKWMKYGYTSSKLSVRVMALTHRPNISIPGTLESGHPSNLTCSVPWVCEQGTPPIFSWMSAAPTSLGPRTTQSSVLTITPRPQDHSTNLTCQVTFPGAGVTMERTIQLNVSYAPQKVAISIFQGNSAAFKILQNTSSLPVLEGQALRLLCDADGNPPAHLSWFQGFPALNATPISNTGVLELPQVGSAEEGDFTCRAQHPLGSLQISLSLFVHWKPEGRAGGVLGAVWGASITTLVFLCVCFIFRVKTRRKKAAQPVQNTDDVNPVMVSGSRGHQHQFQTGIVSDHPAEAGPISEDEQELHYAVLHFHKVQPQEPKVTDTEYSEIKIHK
Procedure: (§1) Mutations were introduced into each Siglec via gene overlap extension PCR mutagenesis (primers were ordered through IDT). Mutagenesis primers can be found in Supplementary Tables 2 and 3 for the critical arginine mutants of the entire Siglec family and the additional Siglec-6 mutants respectively.
(§2) 200,000 cells/well were plated into a 96-well U-bottom microplate and centrifuged at 300 × g for 5 min. The cells were then resuspended in 50 µL of 50 µM liposome/50 µg/mL (protein concentration) of EV solution in DMEM F12 5% FBS and incubated at 37 °C for 30 min. Excess liposomes were then removed via centrifuged at 300 × g for 5 min followed by washing the cells with FACS solution. The cells were then resuspended in (1:250 V/V) anti-Siglec-flow buffer (1% V/V FBS, 500 µM, EDTA Hank’s Balanced Salt Solution pH 7.4), solution and left to rest on ice for 30 min. The cells were then centrifuged again at 300 × g for 5 min and the cells were resuspended in FACS buffer solution and were then ready for analysis by flow cytometry. Information regarding antibody clone, catalog number supplier, label isotype, and dilution can be found in Supplementary Table 6. The Siglec-positive cells were gated on for liposome-binding analysis (Supplementary Fig. 1b).
(§3) Flow cytometry measurements were collected on a 5-laser Fortessa X-20 (BD Bioscience). All the resulting data were analyzed using FlowJo (10.5.3) software (BD Biosciences).

[2] = target: T2, CHO cells expressing Siglec-6 mutants (C46A, C172A, R to A mutants, F93A, L95A, G175M) (Homo sapiens, UniProt O43699, R114A); assay: Cell assay (liposome/EV binding, flow cytometry); type: cell-based; conditions: sheet Figure S26a, 3% GM3-DAG liposomes, R114A;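 note: AF647 fluorescence intensity from 0.1 mol% AF647–PEG45–DSPE in liposomes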
T2 construct: These new CHO cell lines are the full-length versions of the Siglecs; expressed in transfected cells
T2 sequence (O43699 27-453 R114A): as the sequence (O43699 27-453 R112A) above, with A86R, R88A counted along it
Procedure: as §1, §2, §3

[3] = target: T3, CHO cells expressing Siglec-6 mutants (C46A, C172A, R to A mutants, F93A, L95A, G175M) (Homo sapiens, UniProt O43699, R147A); assay: Cell assay (liposome/EV binding, flow cytometry); type: cell-based; conditions: sheet Figure S26a, 3% GM3-DAG liposomes, R147A;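 note: AF647 fluorescence intensity from 0.1 mol% AF647–PEG45–DSPE in liposomes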
T3 construct: These new CHO cell lines are the full-length versions of the Siglecs; expressed in transfected cells
T3 sequence (O43699 27-453 R147A): as the sequence (O43699 27-453 R112A) above, with A86R, R121A counted along it
Procedure: as §1, §2, §3

[4] = tested on: naïve B-cells; assay: Liposome binding to peripheral blood naïve B-cells by flow cytometry; type: cell-based, human; conditions: sheet Figure S29, 5% GM3-DAG liposomes; cells not given
Procedure: as §2, §3

[5] = target: T4, R92K Siglec-6 CHO cells (Homo sapiens, UniProt O43699, R92K); assay: Cell assay (liposome/EV binding, flow cytometry); type: cell-based
T4 construct: These new CHO cell lines are the full-length versions of the Siglecs; expressed in transfected cells
T4 sequence (O43699 27-453 R92K): as the sequence (O43699 27-453 R112A) above, with R66K, A86R counted along it
Procedure: as §1
as §2, with “The Siglec-positive cells were gated on for liposome-binding analysis (Supplementary Fig. 1b).” left out
as §3

[6] = tested on: CHO cells expressing Siglec-6/8 chimeras; assay: Cell assay (liposome binding, flow cytometry); type: cell-based, human
Procedure: as §2, §3
The genes for the constructs containing each domain of Siglec-6 to the two others from Siglec-8 were synthesized by GeneArt and designed with a 5’ NheI and 3’ AgeI site immediately before the start codon and stop codon respectively. […]

[7] = tested on: LAD2 cells; assay: Liposome/EV binding to LAD2 cells by flow cytometry; type: cell-based, human
Procedure: as §2, §3
The LAD2 cell line (a gift from Arnold Kirshenbaum) was cultured in StemPro-34 SFM media (Life Technologies) supplemented with 2 mM L-glutamine, 100 U/ml penicillin, […] streptomycin, and 100 ng/ml recombinant human SCF (PeproTech, Rocky Hill, NJ). […]

[8] = target: T5, Daudi cells transduced with WT Siglec-6 (Homo sapiens, UniProt O43699); assay: Imaging flow cytometry internalization; type: cell-based; conditions: 60 min at 4 or 37 °C
T5 construct: expressed in transfected cells; host or cells: Daudi cells (human B-cell line), lentiviral transduction
T5 sequence (O43699 27-453): as the sequence (O43699 27-453 R112A) above, with A86R counted along it
Procedure: Approximately 2 × 10^5 Daudi cells/well were plated into a 96-well U-bottom microplate and centrifuged at 300 × g for 5 min. The cell pellets were placed on ice, and 50 µL of 100 µM of liposome or 1:20 µL of EVs in RPMI growth medium (Gibco) containing 10% (V/V) fetal bovine serum (FBS; Gibco), 100 U/mL penicillin (Gibco), and 100 µg/mL streptomycin (Gibco) was added to their corresponding wells. Plates were incubated for 1 h at either 4 or 37 °C. After incubation, plates were centrifuged at 300 × g, 5 min, 4 °C then incubated with fluorescently conjugated anti-Siglec-6 antibody (Alexa Fluor 488; 1:250 dilution; R&D Systems) for 25 min at 4 °C. The plates were centrifuged once more at 300 × g, 4 °C, 5 min and the resulting cell pellet was resuspended in 40 µL of flow buffer (1% FBS, 500 µM EDTA Hank’s Balanced Salt Solution pH 7.4). 5000 events were collected for each sample using the ImageStream®X Mk II Flow cytometer (excitation lasers 488 nm and 642 nm, ×60 magnification). Data analysis was performed using IDEAS software, version 6.2.

[9] = target: WT Siglec-6 (Homo sapiens, UniProt O43699); assay: Binding competition between GM1 GLLs and 5 nGLLs; conditions: 1 mol% GM1 liposomes
WT Siglec-6, sequence (O43699 27-453): as the sequence (O43699 27-453 R112A) above, with A86R counted along it
Description: Supplementary Fig. 20: Binding competition between GM1 GLLs and 5 nGLLs against WT Siglec-6.
Binding of 1 mol% GM1 liposomes to WT Siglec-6 in the presence of an increasing concentration of 5 mol%
5 nGLLs. Data is presented with a representative flow cytometry histogram and was quantified as the mean
± one standard deviation of the median fluorescent intensity (MFI) from […] three technical replicates. A
Brown-Forsythe and Welch one-way ANOVA was used to compare the binding of liposomes formulated
(1 picture or pasted object on this page, not shown here)

[10] = tested on: Daudi cells transduced with an empty vector; assay: pHrodo internalization assay by flow cytometry; type: cell-based, human; conditions: sheet Figure S42b

liposome binding, fluorescence signal (replicates) [1]: 4575 and 4566 and 3393 and 4882
liposome binding, fluorescence signal (replicates) [2]: 3286 and 2523 and 2193 and 4407
liposome binding, fluorescence signal (replicates) [3]: 10179 and 9364 and 9449 and 10723
Compound: CCCCCCCCCCCCCCCCOCC(COCCCCCCCCCCCCCCCC)OCc1cn(CCO[C@@H]2O[C@H](CO)[C@@H](O[C@@H]3O[C@H](CO)[C@H](O)[C@H](O[C@]4(C(=O)O)C[C@H](O)[C@@H](NC(C)=O)[C@H]([C@H](O)[C@H](O)CO)O4)[C@H]3O)[C@H](O)[C@H]2O)nn1 [GM3-DAG]
liposome binding, fluorescence signal (replicates) [4]: 154 and 151 and 136 and 149

5 liposome binding gated on identical Siglec-6 expression levels, MFI (Fig. S26e) ([5]; R92K Siglec-6, replicates): 29.25 and 36.25 and 24.25
5 nGLL binding to R92K Siglec-6 CHO cells ([5]; cell assay, expression 42% of WT): minimal binding
binding of GM1 GLLs to WT Siglec-6 in presence of increasing concentration of 5 mol% 5 nGLLs [9]: decreased
Compound: CCCCCCCCCCCCCCCCOCC(COCCCCCCCCCCCCCCCC)OCc1cn(CCO[C@@H]2O[C@H](CO)[C@@H](O[C@@H]3O[C@H](CO)[C@H](O)[C@H](O[C@]4(C(=O)O)C[C@H](O)[C@@H](NC(C)=O)[C@H]([C@H](O)[C@H](O)CO)O4)[C@H]3O)[C@H](O)[C@H]2O)nn1 [nGL 5]
5 liposome binding to chimeras with one individual Siglec-6 domain [6]: none of the three individual Siglec-6 domains supported binding
5 nGLL binding to chimera with the first two domains of Siglec-6 [6]: significantly above background
5 nGLL binding to LAD2 cells [7]: bound robustly
5 nGLL binding to LAD2 cells after pre-incubation with a Siglec-6 antibody [7]: abrogated
internalization of 5 nGLLs by imaging flow cytometry [8]: internalize 5 nGLLs at 37 °C but not 4 °C

Compound: GM3
liposome internalization signal (replicates) ([10]; Emp-4 (empty vector, 4)): 6.1 and 7 and 8.7 and 6.3
liposome internalization signal (replicates) ([10]; emp-37 (empty vector, 37)): 11.2 and 11.5 and 13.6 and 13.8
